Results as given in patent US12606541B2, “PPARg modulators and methods of use” (Eisai R&D Management Co., Ltd., priority 2020, dated 2026).
Where two headings read alike, the source gives them in different places.

What was measured:
UM-UC-9 engineered cells = assay: Cell proliferation / short-term viability assay, CellTiter-Glo 144 h; format: cell-based, human; settings: read-out: CTGlo 144 h UMUC9.5, G150
Procedure, shortened: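 UM-UC-9 engineered assay-ready cells seeded at 500 cells/well in high-glucose DMEM/10% FBS, treated from dose-response plates, grown at 37° C, 5% CO2. CellTiter-Glo 2.0 luminescence read on day 7, with a day-0 pretreatment plate as T0 reference and DMSO wells as negative control.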

His6-TEV-PPARγ-(234-505) = target: T1, His6-TEV-PPARγ-(234-505) (Homo sapiens, UniProt P37231); assay: TR-FRET Assay to Measure Co-R Peptide Recruitment to PPARγ; format: biochemical; settings: Co-R peptide (SMRT-ID2) recruitment; top final concentration 20 μM; read-out: TR-FRET i-Ag; AC50
T1 construct: The His6-TEV-PPARγ-(234-505) protein for assay was expressed and purified; TEV cleavage site (N); made in house
T1 sequence (P37231 234-505): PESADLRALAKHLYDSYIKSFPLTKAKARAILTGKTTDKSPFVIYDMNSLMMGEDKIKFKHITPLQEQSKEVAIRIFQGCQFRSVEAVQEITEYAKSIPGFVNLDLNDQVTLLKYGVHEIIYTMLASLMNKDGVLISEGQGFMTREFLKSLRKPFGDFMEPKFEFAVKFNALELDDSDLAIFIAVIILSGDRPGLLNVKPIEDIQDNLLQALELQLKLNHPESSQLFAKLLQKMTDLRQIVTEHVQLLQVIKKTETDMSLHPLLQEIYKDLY
Procedure, shortened: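 His-tagged PPARγ (or controls) was preincubated with compound for 20 minutes at room temperature, then 5 nM anti-His terbium antibody and 200 nM FITC-labeled SMRT-ID2 corepressor peptide (final) were added for a further hour. TR-FRET signal was normalized to percent response using 500 nM T0070907 and DMSO controls.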

AC50 (His6-TEV-PPARγ-(234-505)) [nM]	Compound	IC50 (UM-UC-9 engineered cells; Homo sapiens, UM-UC-9, 144 h) [nM]	IC50 (UM-UC-9 engineered cells) [nM]
2.3	Cc1cc(-c2cc(C(=O)N3CC[C@H](C(=O)N[C@H]4CC[C@@](O)(C(F)(F)F)CC4)CC34CC4)n[nH]2)c(F)cn1 (single isomer, unassigned) [Example 287-A]	2.4	–
118	Cc1cc(-c2cc(C(=O)N3CC[C@@H](C(=O)N[C@H]4CC[C@@](O)(C(F)(F)F)CC4)CC34CC4)n[nH]2)c(F)cn1 (single isomer, unassigned) [Example 287-B]	184	–
4.4	COc1cc(-c2cc(C(=O)N3CC[C@H](C(=O)NCc4ccc5[nH]nc(F)c5c4)CC34CC4)n[nH]2)c(F)cn1 (single isomer, unassigned) [Example 288-A]	0.9	–
39	COc1cc(-c2cc(C(=O)N3CC[C@@H](C(=O)NCc4ccc5[nH]nc(F)c5c4)CC34CC4)n[nH]2)c(F)cn1 (single isomer, unassigned) [Example 288-B]	56.8	–
281	CO[C@]1(C(F)(F)F)CC[C@@H](NC(=O)[C@@H]2CCN(C(=O)c3cc(-c4cc(C)ncc4F)[nH]n3)C3(CC3)C2)CC1 (single isomer, unassigned) [Example 293-A]	874	–
1640	CO[C@]1(C(F)(F)F)CC[C@H](NC(=O)[C@@H]2CCN(C(=O)c3cc(-c4cc(C)ncc4F)[nH]n3)C3(CC3)C2)CC1 (single isomer, unassigned) [Example 293-B]	3240	–
2.8	CO[C@]1(C(F)(F)F)CC[C@@H](NC(=O)[C@H]2CCN(C(=O)c3cc(-c4cc(C)ncc4F)[nH]n3)C3(CC3)C2)CC1 (single isomer, unassigned) [Example 293-C]	1.6	–
17	CO[C@]1(C(F)(F)F)CC[C@H](NC(=O)[C@H]2CCN(C(=O)c3cc(-c4cc(C)ncc4F)[nH]n3)C3(CC3)C2)CC1 (single isomer, unassigned) [Example 293-D]	86	–
2	CCO[C@]1(C(F)(F)F)CC[C@@H](NC(=O)[C@H]2CCN(C(=O)c3cc(-c4cc(C)ncn4)[nH]n3)C3(CC3)C2)CC1 (single isomer, unassigned) [Example 308-C]	5.9	–
25.6	CCO[C@]1(C(F)(F)F)CC[C@H](NC(=O)[C@H]2CCN(C(=O)c3cc(-c4cc(C)ncn4)[nH]n3)C3(CC3)C2)CC1 (single isomer, unassigned) [Example 308-D]	192	–
635	CCO[C@]1(C(F)(F)F)CC[C@@H](NC(=O)[C@@H]2CCN(C(=O)c3cc(-c4cc(C)ncn4)[nH]n3)C3(CC3)C2)CC1 (single isomer, unassigned) [Example 308-E]	2560	–
6360	CCO[C@]1(C(F)(F)F)CC[C@H](NC(=O)[C@@H]2CCN(C(=O)c3cc(-c4cc(C)ncn4)[nH]n3)C3(CC3)C2)CC1 (single isomer, unassigned) [Example 308-F]	192	–
2.9	CO[C@]1(C(F)(F)F)CC[C@@H](NC(=O)[C@H]2CCN(C(=O)c3cc(-c4cc(C)ncn4)[nH]n3)C3(CC3)C2)CC1 (single isomer, unassigned) [Example 309-A]	5.4	–
49.5	CO[C@]1(C(F)(F)F)CC[C@H](NC(=O)[C@H]2CCN(C(=O)c3cc(-c4cc(C)ncn4)[nH]n3)C3(CC3)C2)CC1 (single isomer, unassigned) [Example 309-B]	302	–
720	CO[C@]1(C(F)(F)F)CC[C@@H](NC(=O)[C@@H]2CCN(C(=O)c3cc(-c4cc(C)ncn4)[nH]n3)C3(CC3)C2)CC1 (single isomer, unassigned) [Example 309-C]	6200	–
1320	CO[C@]1(C(F)(F)F)CC[C@H](NC(=O)[C@@H]2CCN(C(=O)c3cc(-c4cc(C)ncn4)[nH]n3)C3(CC3)C2)CC1 (single isomer, unassigned) [Example 309-D]	3680	–
172	CCO[C@]1(C(F)(F)F)CC[C@@H](NC(=O)[C@@H]2CCN(C(=O)c3cc(-c4cc(OC)ncc4F)[nH]n3)C3(CC3)C2)CC1 (single isomer, unassigned) [Example 312-A]	493	–
2.5	CCO[C@]1(C(F)(F)F)CC[C@@H](NC(=O)[C@H]2CCN(C(=O)c3cc(-c4cc(OC)ncc4F)[nH]n3)C3(CC3)C2)CC1 (single isomer, unassigned) [Example 312-B]	1.8	–
1290	COc1cc(-c2cc(C(=O)N3CC[C@@H](C(=O)NCC45CCC(O)(CC4)CC5)CC34CC4)n[nH]2)c(F)cn1 (single isomer, unassigned) [Example 313-A]	3890	–
3.5	COc1cc(-c2cc(C(=O)N3CC[C@H](C(=O)NCC45CCC(O)(CC4)CC5)CC34CC4)n[nH]2)c(F)cn1 (single isomer, unassigned) [Example 313-B]	13.9	–
1960	COc1cc(-c2cc(C(=O)N3CCC(C(=O)NCC45CCC(O)(CC4)C5)CC34CC4)n[nH]2)c(F)cn1 (single isomer, unassigned) [Example 333-A]	–	9440
6.7	COc1cc(-c2cc(C(=O)N3CCC(C(=O)NCC45CCC(O)(CC4)C5)CC34CC4)n[nH]2)c(F)cn1 (single isomer, unassigned) [Example 333-B]	–	33.2
9.3	COc1cc(-c2cc(C(=O)N3CCC(C(=O)NC4CCC(O)(C(F)(F)F)CC4)CC34CC4)n[nH]2)ncn1 (single isomer, unassigned) [Example 338-A]	–	16.2
723	COc1cc(-c2cc(C(=O)N3CCC(C(=O)NC4CCC(O)(C(F)(F)F)CC4)CC34CC4)n[nH]2)ncn1 (single isomer, unassigned) [Example 338-B]	–	1320
476	Cc1cc(-c2cc(C(=O)N3CCC(C(=O)NC4CCC(O)(C(F)(F)F)CC4)CC34CC4)n[nH]2)ncn1 (single isomer, unassigned) [Example 339-A]	–	3800
6.9	Cc1cc(-c2cc(C(=O)N3CCC(C(=O)NC4CCC(O)(C(F)(F)F)CC4)CC34CC4)n[nH]2)ncn1 (single isomer, unassigned) [Example 339-B]	–	19.5
6.5	COc1cc(-c2cc(C(=O)N3CCC(C(=O)NC4CCC(OCC(C)OC)(C(F)(F)F)CC4)CC34CC4)n[nH]2)c(F)cn1 (single isomer, unassigned) [Example 340-A]	–	4.4
19	COc1cc(-c2cc(C(=O)N3CCC(C(=O)NC4CCC(OCC(C)OC)(C(F)(F)F)CC4)CC34CC4)n[nH]2)c(F)cn1 (single isomer, unassigned) [Example 340-B]	–	10.7
6.1	COc1cc(-c2cc(C(=O)N3CCC(C(=O)NCC4CCc5[nH]ncc5C4)CC34CC4)n[nH]2)c(F)cn1 (single isomer, unassigned) [Example 341-A]	–	6.6
8.1	COc1cc(-c2cc(C(=O)N3CCC(C(=O)NCC4CCc5[nH]ncc5C4)CC34CC4)n[nH]2)c(F)cn1 (single isomer, unassigned) [Example 341-B]	–	12.2

Compound	AC50 (His6-TEV-PPARγ-(234-505)) [nM]	IC50 (UM-UC-9 engineered cells; Homo sapiens, UM-UC-9, 144 h) [nM]	IC50 (UM-UC-9 engineered cells) [nM]
CCOC1(C(F)(F)F)CCC(NC(=O)[C@@H]2C[C@H]3CC[C@@H](C2)N3C(=O)c2cc(-c3cc(OC)ncc3F)[nH]n2)CC1 (single isomer, unassigned) [Example 303-B]	29.8	82	–
